Read-outs that look alike come from different tables or passages of the source.
Assays:
[1] = Photoisomerization: photostationary states by 1H NMR, switching cycles by UV-vis; type: physicochemical
Experimental: Tweezer constructs were synthesized as an E/Z mixture, with a strong preference for the thermodynamically stable E isomer. For photoisomerization, UV-vis spectra of TWAAP and TWAB (50 μM in water) were recorded in their initial state. The constructs were then isomerized to the Z isomer with UV light (λ = 365 nm, 1 min) and back to the E isomer with green light (λ = 520 nm, 5 min). Two light sources were used: UV LED HighPower-LED with 3 W of λ = 365 nm (LED Engin Inc., San Jose, California, US) and a LSC-G HighPower-LED with 3 W of λ = 520 nm (Cree Inc., Durham, North Carolina, US). UV-vis spectroscopy was routinely employed to analyze the tweezer constructs, serving as the method of choice to monitor configurational integrity after multiple switching cycles. More than 10 switching cycles were performed without any loss of configurational integrity. The UV-vis spectra were recorded with a JASCO V-650 double-beam spectrophotometer (JASCO).
The photophysical properties of AAP tweezers TWAAP0-4 as well as those of AZO tweezers TWAB1-2 were consistent with previous reports on these photoswitches. […] The two isomers are easily distinguished by the significant difference in their absorption bands (Fig. 2 and Fig. S4a, b). […] Irradiation with green light further increases the concentration of the E isomer, as confirmed by both UV/vis and NMR spectra. The switching process can be repeated for over 10 cycles without loss of configurational integrity or photodegradation of the tweezer. […] (Fig. 2 and Table S1).
Supplementary Table S1. Photostationary states (PSSE→Z and PSSZ→E) and half-life of Z isomers of
respectively. n.d., not determinable.
TW construct PSSE→Z [%] PSSZ→E [%] […]

wildtype Taspase 1 = molecular target: T1, wildtype Taspase 1 (Homo sapiens, UniProt Q9H6P5); assay: Recombinant cleavage assay with GST-MLL2700–2850-GFP-His substrate; type: biochemical; settings: for IC50: ligand conc. 10 - 100 µM, 200 nM Taspase 1, 5 µM substrate, n = 3, read-out: IC50 TW (recombinant cleavage, full-length protein)
T1 sequence (Q9H6P5 1-233 limits assumed): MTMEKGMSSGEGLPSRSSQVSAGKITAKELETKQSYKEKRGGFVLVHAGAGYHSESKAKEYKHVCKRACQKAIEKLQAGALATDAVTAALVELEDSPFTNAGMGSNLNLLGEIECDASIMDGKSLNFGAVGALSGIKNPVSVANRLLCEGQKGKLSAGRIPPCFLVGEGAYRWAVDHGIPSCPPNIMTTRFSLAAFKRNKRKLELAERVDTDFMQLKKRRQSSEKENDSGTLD
T1 sequence (Q9H6P5 234-420 limits assumed): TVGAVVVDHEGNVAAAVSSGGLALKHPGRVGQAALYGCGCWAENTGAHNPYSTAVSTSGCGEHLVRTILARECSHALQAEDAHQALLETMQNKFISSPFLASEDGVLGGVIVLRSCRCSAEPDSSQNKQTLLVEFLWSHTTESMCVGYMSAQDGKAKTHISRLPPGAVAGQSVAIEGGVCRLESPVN
Experimental: The recombinant cleavage assay employing the recombinant fusion protein GST-MLL2700–2850-GFP-His, which contains the CS2 cleavage site of the Mixed-lineage leukemia (MLL) protein as a substrate for Taspase 1, was performed as described.[9,10]
Given that Taspase 1's active site is positioned directly at the base of the loop harboring the bipartite NLS (Fig. 1A, and Fig. S1), it is reasonable to expect that our photoswitchable tweezer constructs, which recognize this signal, might also influence proteolytic activity - similar to the inhibition observed with our “first-generation” multivalent ligands.[10] In principle the presence of a sterically demanding artificial ligand may hinder or even completely block substrate binding and subsequent cleavage. To assess this, we employed a well-established in vitro cleavage assay using a recombinant, truncated fusion protein harboring the second cleavage site (CS2) of the Mixed Lineage Leukemia 1 (MLL1) protein, a bona fide Taspase 1 substrate.[39] In this assay, the cleaved and uncleaved substrate fractions of the GST-MLL2700–2850-GFP-His substrate were separated on a Coomassie-stained gel, and signal intensities of the different cleavage bands were quantified (Fig. 7, Fig. S8, and Fig. S9). The addition of recombinant, proteolytically active Taspase 1 (200 nM) led to efficient substrate cleavage, which was inhibited by all photoswitchable tweezer constructs in a concentration-dependent manner. IC50 values for the full series of switchable tweezer constructs ranged from 20 to 50 μM, with measurements taken separately for both E and Z isomers Fig. (S9).
Fig. 7 Switchable tweezer constructs interfere with Taspase 1 proteolytic activity. Cleavage assay utilizing the cleavage site CS2 from the natural substrate MLL (GST-MLL2700–2850-GFP-His) and active wildtype Taspase 1. Inhibition of proteolysis was evaluated by the relative amount of uncleaved substrate. Briefly, 5 μM recombinant substrate were incubated with 200 nM wildtype Taspase 1-His and increasing concentrations of TWAAP0-4 (10 - 100 μM), pre-irradiated with either UV light (365 nm, violet), or green light (520 nm, green), or solvent only. Proteolytic activity in solvent-treated samples was set to 100%, and data from TWAAP-treated samples were normalized accordingly. IC50 values were determined by densitometric quantification of the cleavage bands from the gels shown in Fig. S9, followed by nonlinear curve fitting. These values were also used to generate the summary bar plots shown on the right. Data are shown as the mean ± SD from three independent experiments. Composed with https://BioRender.com.
Figure S8. Photoswitchable TWAAP constructs interfere with Taspase 1’s proteolytic activity.
Cleavage assay utilizing the cleavage site CS2 from the natural substrate MLL (GST -MLL2700-2850-GFP-His, 70 kDa) and active wildtype Taspase 1. Inhibition of proteolysis was evaluated by the relative amount of uncleaved in relation to cleaved substrate (50 kDa and 20 kDa, respectively). Briefly, 5 µM recombinant substrate were incubated with 200 nM wildtype Taspase 1-His and increasing concentrations (10 - 100 µM) of indicated TWAAP irradiated with UV (365 nm, left gel panels) or green light (520 nm, right gel panels). Solvent-treated samples (referred to as untreated, un.) served as reference, and as additional controls, Taspase 1 (-T) was omitted or only Taspase 1 (TASP1) was applied. Representative images of three independent experiments are shown. Composed with […]
Figure S9. Photoswitchable TWAAB constructs interfere with Taspase 1’s proteolytic activity. Cleavage assay utilizing the cleavage site CS2 from the natural substrate MLL (GST -MLL2700-2850-GFP-His, 70 kDa) and active wildtype Taspase 1. Inhibition of proteolysis was evaluated by the relative amount of uncleaved in relation to cleaved substrate (50 kDa and 20 kDa, respectively).
Briefly, 5 µM recombinant substrate were incubated with 200 nM wildtype Taspase 1-His and […]

O=P(O)(O)Oc1c2c(c(OP(=O)(O)OCCn3cc(COCc4ccc(N=Nc5ccc(COCc6cn(CCOP(=O)(O)Oc7c8c(c(OP(=O)(O)O)c9c7C7CC9c9cc%10c(cc97)C7CC%10c9ccccc97)C7CC8c8cc9c(cc87)C7CC9c8ccccc87)nn6)cc5)cc4)nn3)c3c1C1CC3c3cc4c(cc31)C1CC4c3ccccc31)C1CC2c2cc3c(cc21)C1CC3c2ccccc21 [TWAB2]
PSS E→Z, photostationary state ([1]; UV 365 nm): 59% | PSS Z→E, photostationary state ([1]; green light 520 nm): 56% | IC50 (wildtype Taspase 1; E isomer): 22.3 µM | IC50 (wildtype Taspase 1; Z isomer): 24.9 µM | Difference in inhibitory activity between E and Z isomers (times greater potency of E isomer) (wildtype Taspase 1; particularly at 50 μM): no difference
